# Results taken from patent publication US20030211457A1, “Methods and kits for testing mutagenicity” (Transgenomic, Inc., priority 2002, published 2003).
# Values joined by “and” are separate entries in the source; they are usually repeats but may differ in a detail not shown here. Equal entries are not always repeated. Where two headings read alike, the source gives them in different places.
# Legend:
# TA 1535 [1] = conditions: TA1535, 1.5-hour exposure, plates incubated 2 days at 37° C., two columns of counts
# Method: For comparative purposes, Ames modified plate assay were performed. […] After the 1.5-hour exposure, the incubation was add to 2 ml of melted top agar, containing limited histidine and biotin, equilibrated to 50° C. (MOLTOX catalog no. 26-503) and plated on minimal plates lacking histidine (MOLTOX catalog no.21-400). The plates were incubated 2 days at 37° C. and revertant colonies counted as shown:
# TA 1535 [2] = conditions: TA1535; azide levels 0.08, 0.2, 0.66, 2.0 and 6 ug; 1.5 hours at 37° C. then 18 hrs selective enrichment; no heteroduplex in vehicle control
# Method: Reactions were performed in sterile 1.5 ml microfuge tubes. Each tube contained: In a first stage incubation, 1 ul of overnight culture of TA 1535; 6.5 ul LB; 15 ul H2O (or S9); 67.5 ul M9 (−histidine+biotin). These four components are added from a master mix to the microfuge tubes. […] The mixture was incubated 1.5 hours at 37° C. The lids of the tubes were closed, but ventilated by piercing with a needle, for aeration. In a second stage incubation, 800 ul of Selective Enrichment Media was added, and the mixture is incubated for 18 hrs without shaking.
# Selective Enrichment Media was prepared in a final volume of 900 ml as follows:
# The media was autoclaved and cooled to room temperature. 90 ml of autoclaved 20% glucose was added. Prior to use, Biotin (Sigma) was added from a 400× stock (1.25M) to a final concentration of 1×.
# A 1 ul aliquot was used in a “Hot start” PCR amplification with a final denaturation/renaturation step followed by analysis by DHPLC. Each dose was processed in quadruplicate.
# For TA1535, the following 342 bp amplicon from the hisG gene was prepared:
# In the PCR, the forward primer was [sequence] (SEQ ID NO: 2) and the reverse primer was [sequence] (SEQ ID NO: 3). The DNA polymerase was Optimase™ polymerase. The PCR conditions were as follows: […]
structure (smiles),measurement,setting,value
[N-]=[N+]=[N-] [sodium azide],no. revertant colonies,TA 1535 [1]; NaN3 exposure amount 0.08 ug,3 and 5
same,no. revertant colonies,TA 1535 [1]; NaN3 exposure amount 0.2 ug,13
same,no. revertant colonies,TA 1535 [1]; NaN3 exposure amount 0.6 ug,15 and 27
same,no. revertant colonies,TA 1535 [1]; NaN3 exposure amount 2 ug,39 and 66
same,no. revertant colonies,TA 1535 [1]; NaN3 exposure amount 6 ug,>100
same,DNA back-mutation at the hot spot (heteroduplex by DHPLC),TA 1535 [2],caused DNA back-mutation at the hot spot
